Assay results published in patent publication US12281123B2, “Benzoxazinone compounds as KLK5/7 dual inhibitors” (MOLECULAR SKIN THERAPEUTICS, INC., priority 2019, dated 2025).
Where “and” joins values, the source holds several entries; their conditions need not be identical. Equal values may be shown once. Read-outs that look alike come from different tables or passages of the source.

Experiments:
Format in all cases: biochemical
Recombinant human KLK5 = target: T1, Recombinant human KLK5 (Homo sapiens, UniProt Q9Y337); test: Recombinant KLK5 chromogenic IC50 assay
T1 construct: purchased SpeedBio (Gaithersburg, MD) / SpeedBioSystems; host or cells: HEK293
T1 sequence (Q9Y337 23-293): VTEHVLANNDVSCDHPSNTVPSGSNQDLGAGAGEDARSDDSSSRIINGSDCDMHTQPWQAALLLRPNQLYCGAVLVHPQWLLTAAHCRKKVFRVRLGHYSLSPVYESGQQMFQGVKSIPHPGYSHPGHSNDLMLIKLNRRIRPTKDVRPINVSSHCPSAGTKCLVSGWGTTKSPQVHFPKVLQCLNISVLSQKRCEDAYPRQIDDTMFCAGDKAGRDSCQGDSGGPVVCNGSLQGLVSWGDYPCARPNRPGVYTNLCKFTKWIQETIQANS
Source text: (§1) Human Kallikrein Proteins: Recombinant human KLK5 expressed in HEK293 was obtained from SpeedBio (Gaithersburg, MD). Recombinant proenzyme KLK-7 and recombinant proenzyme KLK-14 both expressed in mouse myeloma cells were from R&D Biosystems (Minneapolis, MN). Plasmin and thrombin were from Haematologic Technologies (Essex Junction, VT). Trypsin and Chymotrypsin were bought from Worthington Biochemical Corporation (Lakewood, NJ) and plasma kallikrein was from Prospec (East Brunswick, NJ). Neutrophil Elastase was obtained from Innovative Research (Peary Court, MI). Bovine recombinant enterokinase expressed in E. coli was bought from Sigma (St. Louis, MI). Matriptase expressed in E. coli was obtained from Enzo Life Sciences (Farmingdale, NY). The control inhibitors Nafamostat mesylate was from Sigma (St. Louis, MI) and (2-(2-fluorophenyl)-5,6,7,8-tetrahydro-4H-benzo[4,5]thieno[2,3-d][1,3]oxazin-4-one was from Interbioscreen (Moskow, Russia).
(§2) Substrates: S-2288 (D-Ile-Pro-Arg-pNA), CS-PSA (MeO-Suc-Arg-Pro-Tyr-pNA), S-2266 (H-D-Val-Leu-Arg-pNA) and S-2288 (H-D-Ile-Pro-Arg-pNA) were bought from Diapharma (West Chester, OH). MeOSuccAla-Ala-Pro-Val-pNA was purchased from Sigma (St Louis, MI). The substrates were dissolved in water at 10 mM and were frozen in aliquots at −20° C.
(§3) Assays: All assays were performed in 384 well polystyrene plates coated overnight with 0.1% Tween 20 at 4° C. The plates were then washed twice with 100 μL water and dried. For the determination of IC50 values, the inhibitors were diluted in serial dilutions of 1:3 intervals into pure DMSO at 50 fold of the intended final concentrations in the assays. Usually eight inhibitor dilutions and one DMSO control were prepared. The substrates were diluted into water at 2.2-fold the final concentration in the assay mixture. The wells of the plate were filled with 50 μL of the enzyme diluted in 2× assay buffer (100 mM Tris, 200 mM NaCl, 0.2% PEG, 0.01% Tween, 2 mM EDTA, pH 8.0) at twofold the intended concentration. Then 5 μL DMSO, 2.2 μL inhibitor and 45 μL substrate were added to start the reaction. The assays were monitored at 37° C. in a multi well plate reader at a wavelength of 405 nm (Molecular Devices, San Jose, CA) for 1 h. The tool inhibitor, nafamostat, was used as a control for trypsin, thrombin, KLK-5 and KLK-14 at 10 μM maximal concentration and (2-(2-fluorophenyl)-5,6,7,8-tetrahydro-4H-benzo[4,5]thieno[2,3-d][1,3]oxazin-4-one for KLK-7 at 5 μM.
(§4) The table summarizes assay conditions for the individual enzymes:
(§5) Data analysis: The progress curves of substrate hydrolysis were analyzed by linear regression of the final 20 min of the reaction. Fit of the dose response of the resulting rates to the following equation yielded the IC50:
(§6) [formula] with 1) c: the background rate at the highest inhibitor concentration; 2) d: the rate of the control reaction; 3) IC50: the IC50 of the inhibitor; 4) x: the inhibitor concentration; and 5) b: the slope.
(§7) Proteases: KLK5 (SpeedBioSystems); KLK7 (R&Dsystems) was activated with enterokinase (2 hours, 37° C.) prior to assay; Trypsin (Sigma Aldrich); Chymotrypsin (Sigma Aldrich); Factor Xa (Haematologic Technologies); Plasmin (Haematologic Technologies); KLK14 (R&Dsystems) was activated with enterokinase (1 hour, 37° C.) prior to assay; Thrombin (Haematologic Technologies); Neutrophil Elastase (Athens Research&Technology); and KLK1 (Prospec).

KLK7 = target: T2, KLK7 (Homo sapiens, UniProt P49862); test: Recombinant KLK7 chromogenic IC50 assay
T2 construct: purchased R&D Biosystems (Minneapolis, MN) / R&Dsystems; host or cells: mouse myeloma cells
T2 sequence (P49862 30-253): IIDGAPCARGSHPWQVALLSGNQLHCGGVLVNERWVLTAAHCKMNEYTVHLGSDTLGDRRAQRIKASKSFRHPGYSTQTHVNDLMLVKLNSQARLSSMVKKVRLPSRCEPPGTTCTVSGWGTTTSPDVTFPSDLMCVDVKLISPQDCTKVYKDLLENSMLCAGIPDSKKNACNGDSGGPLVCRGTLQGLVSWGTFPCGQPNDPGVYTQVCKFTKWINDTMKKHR
Source text: as §1, §2
Activation of KLK-7 and KLK-14: 150 μL 8 μM solution of the proenzymes of KLK-7 or KLK-14 in 50 mM Tris, 10 mM CaCl2, 150 mM NaCl, 0.05% (w/v) Brij-35, pH 7.5 were mixed with 150 μL 10 μg/mL bovine enterokinase in the same buffer and incubated for 2 h for KLK-7 and 1 h for KLK-14 at 37° C. After the incubation period, activation was stopped by addition of 6 μL 0.5 M EDTA pH 8.0.
as §3, §4, §5, §6, §7

Factor Xa = target: T3, Factor Xa (Homo sapiens, UniProt P00742); test: Chromogenic assay, Factor Xa; conditions: Factor Xa 0.5 nM; S-2288 500 μM; highest conc. of 1.001 20 μM
T3 construct: purchased Haematologic Technologies
T3 sequence (P00742 235-488 limits assumed): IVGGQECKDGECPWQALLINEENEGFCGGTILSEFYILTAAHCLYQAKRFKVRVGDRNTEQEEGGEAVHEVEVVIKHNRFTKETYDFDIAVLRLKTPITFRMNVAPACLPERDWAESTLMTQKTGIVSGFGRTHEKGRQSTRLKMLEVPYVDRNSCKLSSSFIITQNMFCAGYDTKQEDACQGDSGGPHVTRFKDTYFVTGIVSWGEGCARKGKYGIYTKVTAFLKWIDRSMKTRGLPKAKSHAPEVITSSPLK
T3 sequence (P00742 41-179 partner limits assumed): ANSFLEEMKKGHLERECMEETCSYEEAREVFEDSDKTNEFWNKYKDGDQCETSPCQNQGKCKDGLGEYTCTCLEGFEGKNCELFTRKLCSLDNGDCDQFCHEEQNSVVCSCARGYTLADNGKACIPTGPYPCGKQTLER
Protocol: as §3
Data analysis: The progress curves of substrate hydrolysis were analyzed by linear regression of the final 20 min of the reaction. Fit of the dose response of the resulting rates to the following equation yielded the IC50: […]

Thrombin = target: T4, Thrombin (Homo sapiens, UniProt P00734); test: Chromogenic assay, thrombin; conditions: Thrombin 0.5 nM; S-2288 500 μM; highest conc. of 1.001 100 μM
T4 construct: purchased Haematologic Technologies (Essex Junction, VT)
Source text: as §1, with “Russia). […]” for “Russia).”
Assays: All assays were performed in 384 well polystyrene plates coated overnight with 0.1% Tween 20 at 4° C. […] The assays were monitored at 37° C. in a multi well plate reader at a wavelength of 405 nm (Molecular Devices, San Jose, CA) for 1 h. […]
Data analysis: The progress curves of substrate hydrolysis were analyzed by linear regression of the final 20 min of the reaction. […]

proteases = test: Chromogenic assay, protease panel (conclusion); conditions: conclusion from Table 3, all proteases tested
Protocol: as §3, with “μM. […]” for “μM.”

## CS(=O)(=O)c1cc(CO)ccc1-c1nc2cc3c(cc2c(=O)o1)OCCO3 [Compound 1.001, 2-(4-(Hydroxymethyl)-2-(methylsulfonyl)phenyl)-7,8-dihydro-4H-[1,4]dioxino[2′,3′:4,5]benzo[1,2-d][1,3]oxazin-4-one]
Recombinant human KLK5; Table 2, assay protocol of Example 3, read-out: Recombinant KLK5 enzyme (IC50)
  IC50: 0.21 µM
Recombinant human KLK5; Table 3, KLK5 10 nM, S-2288 500 μM, highest conc. of 1.001 10 μM, read-out: IC50 (μM), KLK5
  IC50: 0.176 µM and 0.188 µM
Recombinant human KLK5; conclusion from Table 3
  Inhibition of KLK5, conclusion in words: inhibitor
KLK7; Table 2, assay protocol of Example 3, read-out: Recombinant KLK7 enzyme (IC50)
  IC50: 0.34 µM
KLK7; Table 3, KLK7 20 nM, CS-PSA 500 μM, highest conc. of 1.001 20 μM, read-out: IC50 (μM), KLK7
  IC50: 0.647 µM and 0.693 µM
KLK7; conclusion from Table 3
  Inhibition of KLK7, conclusion in words: inhibitor
Factor Xa
  IC50: 3.22 µM and 10.4 µM and 3.94 µM
Thrombin
  IC50: > 10 µM

## CS(=O)(=O)c1cc(CO)ccc1C(=O)Nc1cc2c(cc1C(=O)O)OCCO2 [Compound 408, reference compound]
Recombinant human KLK5; Table 3, KLK5 10 nM, S-2288 500 μM, highest conc. of 1.001 10 μM
  IC50 (μM), KLK5: No inhibition
KLK7; Table 3, KLK7 20 nM, CS-PSA 500 μM, highest conc. of 1.001 20 μM
  IC50 (μM), KLK7: No inhibition
Factor Xa
  IC50 (μM), Factor Xa: No inhibition
Thrombin
  IC50 (μM), Thrombin: No inhibition
proteases
  Inhibition of proteases, conclusion in words: unable to inhibit proteases
